# Experimental data taken from patent EP0470323A2, “New salts of the nicotinic acid with aminobenzylic compounds and their pharmaceutical use” (BROMLEY LIMITED, priority 1990, dated 1992).
# Tests used:
# [1] = tested on: Central artery of a rabbit's ear; assay: In vitro antispastic action, adrenalin-induced spasm of the perfused isolated artery; settings: spasm induced by Adrenalin, n=4
# Method: An "in vitro" method has been used, according to which the withdrawal of the central artery of a rabbit's ear with the relevant nervous connections and the equipment of an appropriate seat for secluded organs was designed (Fleckenstein A., British Journal of Pharmacology 7, 533, 1952).
# On the artery they did install a three-ways tube, connected with a peristaltic pump and with a mercury manometer to record the perfusion pressure. The artery was perfused with a rebs liquid at the speed of 2,5 ml/minute. The contractions were induced by injecting into the vessel 0,1 ml adrenalin at the concentration of 1 mcg/ml. The compound according to the example 1 has been added to the bath at concentrations of 0,5 - 1 - 2 uM, five minutes before the adrenalin (four preparations per concentration). As comparison drugs, chlorhydra ted Buflomedil and Papaverin have been used. The activity of the material under investigation has been appreciated in terms of percentages referring to the concentration induced by the Adrenalin (and expressed with DE₅₀) and the relevant forbidding.
# [2] = tested on: aggregation of the platelets caused by the collagene; assay: Anti-aggregating ex vivo activity against collagen in the rat
# Method: Six groups of 15 male rats of 200 - 250 g have been used.
# The blood taken from the three rats of each group has been mixed and centrifuged during 6 minutes at 1400 rpm, at room temperature. After having taken the plasma full of platelets (PRP) the thereunder floating material has been centrifuged again (4000 rpm during 10 minutes) in order to have the plasma with few platelets (PPP) separated from the balance. The PRP has been diluted with a part of PPP in order to bring the number of platelets to 350 ± 50 x 10³/mm³. The aggregation has been evaluated in accordance with the method of Minsker D.H. and coll. (J. Pharmacol.Exp.Ther. 210 37 1979) by using an ELVI 840 two-channels aggregometer and an Omniscribe recorder B.500. A quantity of 0,25 ml PRP has been used, transferred into the aggregometer for two minutes at 37°C and stirred at 1000 rpm. The light intensity was arranged in such a way, to obtain 0% transmittance with the PRP and 100% with the PPP. After 2′ incubation, by means of microsyringe the collagene was added to the PRP in a volume quantity of 5 mcl with the final concentration of 4 mcg/ml.
# From the aggregation trace of the recorder the following data have been evaluated: • a) latent time of the aggregation (seconds between the introductions of collagene and the starting of the aggregation) • b) transmittance increase percentage (maximum aggregation). The same proceeding was repeated for all animals, always by mixing the blood of three rats belonging to the same group and by obtaining in this manner five aggregation curves per group.
# red cells in the rat [3] = assay: Red cell adhesivity / filtration, Teitel method; assay type: in vivo
# From the text: (§1) steresis (Teiltel P.: Nouv. Rev. Franç. Hématol. 7, 195, 1967). Any alteration, almost undoubtely at the level of the red cell's membrane, cause some damaging variations of the red cell's elasticity thus making more difficult the passing through the capillary vessels having more reduced diameter, and therefore increasing the flow resistance in the peripheral vessels systems. In order to determine the effect caused by the compound according to the Example 1, on these features of the red cell, the method described by Schmidt, Schonbein and colleagues (Blut 26, 369, 1973) has been used.
# (§2) In the circulatory flow, the above mentioned capillary vessels being excluded, the blood cells do normally circulate being attached between each other because of their adhesiveness. In order to study this adhesion force, the above mentioned Teitel method has been used. Male rats of 150 g body weight approximately have been employed, and they have been treated for three consecutive days with 0,5 mM/kg/os of the compound according to the Example 1, or otherwise Buflomedil, or even Pentosiphillin used as comparison substance. After the last treatment the animals, without eating from 18 hours, have been killed in a light ethereal anaesthesy and the blood was collected over an 0,2 molar EDTA (9 and 1 volumes respectively). The red cells filtering possibility, measured with the Teitel method, wherein the quantity of red cells passing, in high haematocritical conditions, through a paper filter with holes of 20-40 µm in a previously determined time, has been ascertained as follows: the blood was centrifuged for ten minutes at 2000 rpm in order to obtain the massing of the red cells, two ml of the blood collected as above were put into an upside down turned cone made with filtering paper, being previously wetted with a physiological solution. The volume passing through the filter in 2 - 4 - 8 and 16 minutes is then measured. The average filtration time T 1/2 is reckoned on semi-logarithmic paper by putting on the abscissae the logarithm of the time, and on the ordinates the percentage of blood filtered. In order to follow the Schmidt Schönbein method, the here after described proceeding has been performed: 0,2 ml of a suspension of red cells at 2% obtained by diluting the blood with the autological plasma, then it was placed into an appropriate device permitting to filter this blood through a filter (millipores) of 5 µm mashes at a filtration pressure of 50 mm water. With a chronometer one determines the time required for the passage of the whole sample through the filter.
# At time same time, one measures, in the same conditions, the same parameter for a plasma sample. One calculates then the relative filtration time by dividing the time required to filter the diluted blood sample by the time being necessary to filter the plasma sample. For each group the average and the standard error of the individual data obtained was reckoned. The statistical evaluation was obtained by means of the Dunnett test.
# [4] = tested on: skin temperature of the mouse's paw; assay: Peripheral vessel-dilating activity in the mouse (skin temperature of hind paws); assay type: in vivo; settings: listed as buflomedil HCl; for Temperature (°C) of the hind paws (n=10): intravenous, dose 0,030 mM/kg/iv; for Temperature (°C) of the hind paws: oral, dose 0,500 mM/kg/os
# Method: The method of Richter W. (Acta Pharm. Toxicol. 21, 91; 1974) was used; it consists in determining, at fixed time intervals after the treatment, the skin temperature of the mouse's paw, by keeping the animals in rooms at a constant temperature of 21°C.
# Some groups of ten male mouses each have been used; the weight of each animal was 30 g approximately.
# The compound according to the Example 1 has been tested "per os" at three basic levels of the doses (0,125 - 0,25 - 0,5 mM/kg) and by intravenous injection at two dose levels (0,015 and 0,03 mM/kg), in comparison with one sole dose of Papaverin and chlorhydrated Buflomedil (0,5 mM/kg "per os" and 0,03m M/kg intravenous). The observation of the skin temperature at the mouse's paw was made before the treatment, 30, 60 and 120 minutes after the "per os" treatment, […] (A-Hl Ellab) connected with an Ellab electric recorder. Of each animal the temperature of both hind paws has been measured, and the values obtained have been averaged .
# red cells in the rat [5] = assay: Red cell deformability / filtration, Schmidt-Schönbein method; assay type: in vivo; settings: dose 3 x 0,5 mM/kg/os
# From the text: as §1
# as §2, with “The average filtration time T 1/2 is reckoned on semi-logarithmic paper by putting on the abscissae the logarithm of the time, and on the ordinates the percentage of blood filtered. In order to follow the Schmidt Schönbein method, the here after described proceeding has been performed: 0,2 ml of a suspension of red cells at 2% obtained by diluting the blood with the autological plasma, then it was placed into an appropriate device permitting to filter this blood through a filter (millipores) of 5 µm mashes at a filtration pressure of 50 mm water. With a chronometer one determines the time required for the passage of the whole sample through the filter.” left out
# [6] = rat, 1,00 mM/kg os for 4 days, PRP 2 hours after last treatment, collagene 4 mcg/ml, listed as Chlorhydrated Buflo-medil
# [7] = rat, 1,00 mM/kg os for 4 days, listed as Chlorhydrated Buflo-medil
# [8] = 0 minutes (before the treatment)
compound,measurement,setting,value
"COc1cc(OC)c(C(=O)CCCN2CCCC2)c(OC)c1 [Buflomedil, reference compound]",EC50,"[1]; Oryctolagus cuniculus, read-out: DE50 (the source's name)",670 nM
same,% inhibi-tions of the con-tractions,"[1]; concentration 0,5 μ M",41%
same,% inhibi-tions of the con-tractions,"[1]; concentration 1,0 μ M",60%
same,% inhibi-tions of the con-tractions,"[1]; concentration 2,0 μ M",87%
same,effect relative to that caused by the same dose of the compound according to the example 1,"[2]; rat, 1 mM/kg os, platelet aggregation by collagene",approximately 50%
same,Latency time (sec.),[2]; [6],"51,9 ± 3,7 sec."
same,Transmittance percentage (maximum aggregation),[2]; [6],"54,2 ± 4,5%"
same,"Latency time, % variation vs controls",[2]; [7],"+38,4%"
same,"Transmittance percentage, % variation vs controls",[2]; [7],-31%
same,Teitel method Δ % vs contr.,"red cells in the rat [3]; dose 3 x 0,5 mM/kg/os","20,3%"
same,Teitel method T1/2 min. M ± E.S.,"red cells in the rat [3]; dose 3 x 0,5 mM/kg/os (three consecutive days)","2,90 ± 0,28 min."
same,Temperature (°C) of the hind paws (n=10),[4]; [8],"24,3 ± 0,32 °C"
same,Temperature (°C) of the hind paws (n=10),[4]; 30 minutes from the treatment,"26,6 ± 0,20 °C"
same,Temperature (°C) of the hind paws (n=10),[4]; 60 minutes from the treatment,"26,3 ± 0,24 °C"
same,Temperature (°C) of the hind paws (n=10),[4]; 120 minutes from the treatment,"26,0 ± 0,18 °C"
same,Temperature (°C) of the hind paws,[4]; [8],"24,2 ± 0,30 °C"
same,Temperature (°C) of the hind paws,[4]; 30 minutes from the treatment,"25,8 ± 0,25 °C"
same,Temperature (°C) of the hind paws,[4]; 60 minutes from the treatment,"26,5 ± 0,50 °C"
same,Temperature (°C) of the hind paws,[4]; 120 minutes from the treatment,"26,1 ± 0,42 °C"
same,Schmidt-Schönbein method Δ % vs contr.,red cells in the rat [5],"24,2%"
